Earlier results as cited in patent US11253533B1, “Water dissolvable macrocyclic lactone cyclodextrin complexes” (MOUNTAIN VALLEY MD INC, priority 2020, dated 2022).

SMILES: CC[C@H](C)[C@H]1O[C@]2(CC[C@@H]1C)C[C@@H]1C[C@@H](C/C=C(\C)[C@@H](O[C@H]3C[C@H](OC)[C@@H](O[C@H]4C[C@H](OC)[C@@H](O)[C@H](C)O4)[C@H](C)O3)[C@@H](C)/C=C/C=C3\CO[C@@H]4[C@H](O)C(C)=C[C@@H](C(=O)O1)[C@]34O)O2 [Ivermectin, (1R,4S,5'S,6R,6′R,8R,10E,12S,13S,14E,16E,20R,21R,24S)-6′-[(2S)-butan-2-yl]-21,24-dihydroxy-12-[(2R,4S,5S,6S)-5-[(2S,4S,5S,6S)-5-hydroxy-4-methoxy-6-methyloxan-2-yl]oxy-4-methoxy-6-methyloxan-2-yl]oxy-5′,11,13,22-tetramethylspiro[3,7,19-trioxatetracyclo[15.6.1.14,8.020,24]pentacosa-10,14,16,22-tetraene-6,2′-oxane]-2-one]
- maximum concentration of ivermectin (FR 3042412, without an organic solvent): 2 mg per millileter of water
- solubility of Ivermectin (U.S. Pat. No. 4,389,397, with organic solvents, no cyclodextrin): 7%
- solubility in water (at 25 degrees Celsius): about 0.005 mg per ml
